According to patent US20240207141A1, “PEPTIDE HAVING REPARATIVE DENTIN-REGENERATING ACTIVITY AND USE THEREOF” (SEOUL NATIONAL UNIVERSITY R&DB FOUNDATION, priority 2022, published 2024):
No end group written: not given here.

What was measured:
rat pulp exposure model = assay: Rat tooth pulp exposure model, histologic analysis (H&E) of inflammatory response and hard tissue formation; type: in vivo
Description: Seven-week-old male Sprague-Dawley rats were purchased from the OrientBio after approval from the Institutional Animal Care and Use Committee of Seoul National University (No. SNU-180109-2) was obtained. […] Resin cement (Rely X U-200, 3M ESPE, MN, USA) was used as the final restoration in all experimental groups.
Specifically, the rats were anesthetized by the intraperitoneal injection of 31.25 mg/kg tiletamine/zolazepam and 8.75 mg/kg xylazine. After ascertaining the general anesthesia, the oral cavity was opened with a customized wire to expose the lower first molars. After cleaning and sanitizing with both 3% H2O2 and a 10% Betadine-soaked cotton, the center of the occlusal surface was carefully punctured using a #¼ round bur (0.5 mm in diameter) with a high-speed hand piece. MTA (ProRoot MTA, Dentsply Sirona, York, PA, USA) was mixed according to the manufacturer's instruction and the mixture was applied to the exposed pulp. […] The punctured sites were covered with resin cement after the application of MTA or the collagen sponge. In the Resin group, resin cement was directly applied to the punctured site. The sharp cusp tips of the upper molar and lower first molar were grinded using a football shaped diamond bur in order to prevent tooth fractures by mastication.
Rats were histologically analyzed 2 and 4 weeks after pulp exposure surgery. Whole mandibles were fixed f in 4% paraformaldehyde at 4° ° C. for 24 hours. For histological staining, the specimens were decalcified with 12% EDTA for 4 weeks and embedded in paraffin. […] Each sample was evaluated and scored for inflammatory response and hard tissue formation according to the criteria presented in [Table 2] below.

[1] = system: human dental pulp cells (hDPCs); assay: Cell viability assay of hDPCs (water-soluble tetrazolium salt); type: cell-based; conditions: 50, 100 and 200 μg/ml, 24 or 48 hours
Description: Human dental pulp cells (hDPCs) were collected from the patient's third molars after patient consent and approval from the Institutional Review Board (IRB) of Seoul National University Dental Hospital (IRB No. CRI19007) were obtained. The hDPCs were passaged three times in Dulbecco's modified Eagle's medium (DMEM; Gibco BRL, Carlsbad, CA, USA) supplemented with 10% fetal bovine serum (FBS) and 1% penicillin/streptomycin (10,000 U/ml penicillin, 10,000 μg/ml streptomycin; Gibco, Paisley, Scotland). In order to induce odontogenic differentiation, the hDPCs were then cultured using DMEM supplemented with 10% FBS, 1% penicillin/streptomycin, 10 mM β-glycerophosphate, 200 μM ascorbic acid, and 0.1 μM dexamethasone.
The viability of hDPCs in the presence of VnP-16 was investigated using an Cytox Cell Viability Assay Kit (DoGenBio, Seoul, Korea). A 96-well culture plate was treated with 50, 100 and 200 μg/ml VnP-16, and then 1.5×10^4 cells were plated into each well, and incubated for 24 or 48 hours at 37° C. The water-soluble tetrazolium salt reagent ([…] ) was added to each well, and the plate was incubated at 37 °C for 2 hours. Finally, absorbance at 450 nm was measured using a microplate reader (Epoch2, Bio-Tek, VT, USA).

[2] = system: human dental pulp cells (hDPCs); assay: hDPCs cell attachment assay on coated plates; type: cell-based; conditions: immobilized on plates (vitronectin 0.26 μg/cm2, peptides 10.5 μg/cm2), 1 hour
Description: First, for the cell attachment assay, 48-well culture plates were coated with human plasma vitronectin (0.26 μg/cm2) at 4° C. for 24 hours. The SP and VnP-16 (10.5 μg/cm2) were also coated on the plates by drying at room temperature for 24 hours. […] The peptide-coated plates were blocked with 1% heat-inactivated bovine serum albumin (BSA) in phosphate-buffered saline (PBS) at 37° ° C. for 1 hour, and then washed with PBS. The hDPCs (5×10^4 cells/250 μL) were added to each plate and incubated at 37° ° C. for 1 hour, and then unattached cells were removed by rinsing the plates twice with PBS. The attached cells were fixed with 10% formalin for 15 minutes and stained with 0.5% crystal violet for 1 hour. The plates were then gently washed three times with double-distilled water. Afterwards, the contents of each well were solubilized in 2% sodium dodecyl sulfate for 5 minutes, and then absorbance at 570 nm was measured using a microplate reader.

[3] = system: human dental pulp cells (hDPCs); assay: hDPCs cell spreading assay on coated plates; type: cell-based; conditions: immobilized on plates (vitronectin 0.26 μg/cm2, peptides 10.5 μg/cm2), 3 hours
Description: In addition, for the cell spreading assay, hDPCs (3×10^4 cells/250 μL) were incubated at 37° ° C. for 3 hours on each peptide-coated plate in the same manner as above. The attached cells were fixed with 10% formalin and stained with 0.5% crystal violet for 1 hour. Then, the plates were gently washed three times with PBS, and then the degree of cell spreading was assessed by measuring the surface area of the cells using Image Pro Plus software (version 4.5; Media Cybernetics, Silver Spring, MD, USA).

[4] = system: human dental pulp cells (hDPCs); assay: Scratch wound migration assay; type: cell-based; conditions: vitronectin 1.25 μg/ml, VnP-16 50 μg/ml; 0, 24 and 48 hours
Description: In order to evaluate the migration ability and wound healing ability of hDPCs, the scratch assay was used. The hDPCs were plated in a 24-well plate and incubated in complete medium until 80% confluence. Then, the cells were passaged in serum-free medium for 24 hours, and then stimulated by scratching with a 200 μl pipette tip. After PBS washing to remove cell debris, the cultures were treated with vehicle (10% DMSO), vitronectin (1.25 μg/ml), SP (50 μg/ml), or VnP-16 (50 μg/ml). Pictures were taken using a microscope (Nikon, Tokyo, Japan) at 0, 24 and 48 hours after treatment. The data were analyzed using Image Pro Plus software (version 4.5; Media Cybernetics, MD, USA) to compare the percentage of scratch closure from 0 hour to 48 hours time point. The percentage of: scratch closure was calculated by the following equation: Scratch closure %=[A (0)−A(t)/A(0)]×100. Wherein the scratch area at time zero is “A (0)”; and the area after the incubation time (t) is “A(t)”. The scratch wound migration assay was performed in triplicate.

## FVWRQFYKYEKG [SP, scrambled peptide used as a negative control]
Rat pulp exposure model; 2 weeks after pulp exposure surgery
  newly formed mineralized tissues at the pulp-exposed sites: hardly detected
Rat pulp exposure model; 4 weeks after pulp exposure surgery
  hard tissue formation: showed hard tissue formation
Rat pulp exposure model; 4 weeks after pulp exposure surgery, H&E
  quality of the reparative dentin: non-tubular and large cell-inclusion structure

## RVYFFKGKQYWE-NH2 [VnP-16]
[1]
  cytotoxicity to hDPCs (cell viability): no cytotoxicity

B1: vitronectin: human plasma vitronectin purchased from Millipore, used as a positive control (protein, UniProt P04004 20-478, looked up)
Vitronectin: DQESCKGRCTEGFNVDKKCQCDELCSYYQSCCTDYTAECKPQVTRGDVFTMPEDEYTVYDDGEEKNNATVHEQVGGPSLTSDLQAQSKGNPEQTPVLKPEEEAPAPEVGASKPEGIDSRPETLHPGRPQPPAEEELCSGKPFDAFTDLKNGSLFAFRGQYCYELDEKAVRPGYPKLIRDVWGIEGPIDAAFTRINCQGKTYLFKGSQYWRFEDGVLDPDYPRNISDGFDGIPDNVDAALALPAHSYSGRERVYFFKGKQYWEYQFQHQPSQEECEGSSLSAVFEHFAMMQRDSWEDIFELLFWGRTSAGTRQPQFISRDWHGVPGQVDAAMAGRIYISGMAPRPSLAKKQRFRHRNRKGYRSQRGHSRGRNQNSRRPSRATWLSLFSSEESNLGANNYDDYRMDWLVPATCEPIQSVFFFSGDKYYRVNLRTRRVDTVDPPYPRSIAQYWLGCPAPGHL
[2]
  cell attachment of hDPCs: strongly promoted cell attachment and spreading
[3]
  cell spreading of hDPCs: strongly promoted cell attachment and spreading
[4]
  wound migration of hDPCs (scratch closure): strongly promoted the wound migration
